We go through 1 compound from publication PMC4847728 (ACS chemical biology, 2015).

Values after ≈ are worked out from the molar mass of the structure shown.

The subject of assay [1] is Staphylococcus aureus ATCC 10537 (MRSA). The assay is described as follows: MIC, liquid microdilution, MRSA. The assay is classed as cell-based. Conditions: 18 h, 37 °C. (In general: In broth dilution the organism is exposed to a series of concentrations in liquid medium.)
In assay [2] the test system is in vitro protein synthesis (E. coli S30 Extract System). The assay is described as follows: In vitro transcription-translation coupled assay. The format is biochemical. Conditions: read-out: IC50, in vitro translation inhibition, pBESTLuc template, 37 °C, 1 h, triplicate.
In the next assay the test system is Bacillus sp. ATCC 27859. The experiment in a line: MIC, liquid microdilution, Bacillus. The assay is classed as cell-based. Conditions: 18 h, 37 °C.
Assay [3] concerns Enterococcus faecium ATCC 12952 (VRE). The experiment in a line: MIC, liquid microdilution, VRE. The assay is classed as cell-based. Conditions: 18 h, 37 °C.

Take `C=C(NC(=O)C(=C)NC(=O)c1csc(C2=N[C@@H]3c4csc(n4)[C@H]4NC(=O)c5csc(n5)[C@H]([C@](C)(O)[C@@H](C)O)NC(=O)[C@H]5CSC(=N5)/C(=C/C)NC(=O)[C@H]([C@@H](C)O)NC(=O)c5csc(n5)[C@]3(CC2)NC(=O)[C@H](C)NC(=O)C(=C)NC(=O)[C@H](C)NC(=O)[C@H]([C@@H](C)CC)N[C@@H]2C=Cc3c([C@H](C)O)cc(nc3[C@H]2O)C(=O)O[C@@H]4C)n1)C(N)=O` [Thiostrepton A, thiostrepton A]: the “MIC MRSA” value in assay [1] turned out to be 0.012 µg/mL (≈ 7.21 nM). Further, the IC50 – broadly, the concentration needed to halve the response being measured – in assay [2] was found to be 630 ± 10 nM. Moreover, the “MIC Bacillus” value in the assay on Bacillus sp. ATCC 27859 stood at 0.025 µg/mL (≈ 15 nM). For the same compound, in assay [3], the “MIC VRE” value was found to be 0.012 µg/mL (≈ 7.21 nM).
